Our source for the melting point values is a melting point compilation (Tetko et al.; mined from patent text by program, amines drawn as free bases though some values may be those of a salt).

A value given as a limit tells only on which side of the number the result lay.

As a reminder, the melting point is the temperature of the solid-liquid transition. `C=CCN1CCc2cc(OC)c(O)c3c2C1Cc1cc(O)c(OC)cc1-3` (single isomer, unassigned; (+)) yielded a melting point of 161 to 171 °C. In the case of `CC(=NC1CCCCC1)Nc1ccccc1C` it was 130 to 131 °C; in that of `O=C1CCN(Cc2cccnc2)C(=O)C1=C1SC=CS1`, 132 to 133 °C. `CC(C)(C)OC(=O)NC(Cc1ccccc1)C(O)CNCC(O)C(Cc1ccc(OCCN2CCOCC2=O)cc1)NC(=O)OC(C)(C)C` (configuration not stated) came in with a melting point of 108 to 111 °C. In the case of `O=C(O)C1CC1c1cc(=O)c2cc(-c3ccccc3)ccc2o1` (configuration not stated) it was 226 to 228 °C. `COc1ccc(Nc2nc(NC3CCCCCC3)nc(OCC3CCCN3)n2)cc1Cl` (configuration not stated) displayed a melting point of 84 to 86 °C. `CCOC(=O)C(Cc1ccc(OCc2ccccc2)cc1)Oc1ccc(OC(F)(F)F)cc1` (configuration not stated) returned a melting point of 34 to 36 °C.

`Cc1cccc(C)c1CNc1cc(C(N)=O)cc2c1nc(C)n2C`: the melting point worked out at 272 °C. In the case of `CCC(C)c1cc2c(cc1O)CC[C@@H]1[C@@H]2CC[C@]2(C)C(=O)CC[C@@H]12` (some centres not stated) it was 186 to 187 °C; in that of `COc1cc2c(cc1OC)C(=O)C(CN1CCC3(CC1)C(=O)NCN3c1ccccc1)C2` (configuration not stated), 174 to 177 °C; in that of `COC(=O)c1ccccc1-c1ccc(Cc2nc(-c3ccccc3)nc3ccccc23)cc1`, 120 to 121 °C.

With `Brc1cnc(SCc2ccccc2)nc1`, the melting point was 68 to 69 °C. With `Cn1c(=O)[nH]c2ccc(Br)cc21` the figure was 237 to 238 °C; with `CCc1cc2c(O)c(C#N)c(=O)oc2cc1C`, 224 to 226 °C. Compound `CCn1ncc2c(C(F)(F)F)cc(=O)[nH]c21` showed a melting point of 178 to 179 °C. In the case of `Brc1ccc(-c2nc3n(c2-c2ccc(Br)cc2)CCS3)cc1` it was 208 to 210 °C; in that of `COc1ccnc(CS(=O)c2nc3cc4c(cc3[nH]2)OC(F)(F)C(F)(Cl)O4)c1` (configuration not stated), 179 to 181 °C; in that of `COC=Nc1cc(-c2ncon2)nn1-c1c(Cl)cc(C(F)(F)F)cc1Cl`, 113 to 114 °C.

In the case of `Cc1ccc(-c2cn(C)cc(-c3ccccc3C)c2=O)cc1`, the melting point lay within 151 to 154 °C.

`CCSc1nc(Nc2ccc(F)cc2F)c(C(=O)OC)cc1F` displayed a melting point of 113 to 114 °C. With `NC(=O)c1ccc(N2CCN(c3ccncc3)CC2)cc1` the figure was 327 to 330 °C; with `O=C1CCC2(N1)C1C=CC(C1)C2c1ccccc1` (configuration not stated), 152 to 155 °C. With `Cc1c[nH]c(=O)n(C(=O)c2ccccc2)c1=O` the figure was 178 to 180 °C. `CCCCc1nc2cccc(C(=O)OC)c2n1Cc1ccc(-c2ccccc2C#N)nc1` yielded a melting point of 155 to 156 °C.

For `C=CC(=O)Oc1c(C(C)c2cc(C(C)(C)CC)cc(C(C)(C)CC)c2O)cc(C(C)(C)CC)cc1C(C)(C)CC` (configuration not stated), the melting point is 119 to 121 °C. With `O=CC(=Cc1ccc(Cl)cc1Cl)C1CCOCC1` the figure was 82 to 85 °C; with `CCOC(=O)c1ccc(NC(=O)NC2CN(C3CCCCC3)c3ccccc3N(CC(=O)c3cccs3)C2=O)cc1` (configuration not stated), 219 to 220 °C; with `O=C(N1CCN(c2ccccc2)CC1)N1CCc2ccccc2CO1`, 123 to 125 °C. In the case of `C=CCOc1cccc(C(=O)CCC(=O)OC)c1` it was 30 to 32.5 °C; in that of `CC(=O)c1cc2c(Sc3ccc(C)cc3)cncc2s1`, 134 to 138 °C. In the case of `CCCCCCCCc1cc2c(cc1/C(C)=C/c1ccc(C(=O)OC)cc1)C(C)(C)CCCS2(=O)=O` it was 85 to 86 °C. For `O=C(NNC(=O)c1ccccc1Cl)c1ccccc1Cl`, the melting point is 217 to 219 °C.

Turning to `CC(Br)c1ccc2c(-c3ccccc3)onc2c1` (configuration not stated), the melting point lay within 99 to 102 °C.

`O=C(NC(=O)c1c(F)cccc1F)Nc1cc(Cl)c(OCC(F)(F)F)cc1F`: the melting point is 201 to 202 °C. With `Clc1nc(N2CCCCC2)c2ncnc(Cl)c2n1` the figure was 114 to 117 °C; with `COC(=O)c1ccc(OCCCCCCCc2cc(C)no2)cc1`, 60 °C; with `CCN(c1nc(C)cc(-c2ccccc2C(=O)O)n1)c1ccc(C(C)C)cc1Br`, 209 to 210 °C. Take `CCN(CC)C(=O)c1c(O)cc(C(F)(F)F)cc1-c1ccc(OC)c(OC)c1`: the melting point is 161 °C. In the case of `O=C(O)C1CCN2c3ccc(Cl)cc3Oc3ccccc3C2C1` (configuration not stated), the melting point fell in the range of 209 to 211 °C. With `Cc1cccc(-c2n[nH]cc2-c2ccnc(-c3ccc(S(C)(=O)=O)cc3)c2)n1` the figure was 232 to 234 °C. `CC1(C)C2CC[C@]1(C)C(=O)C(C(=O)Nc1cccc(C(F)(F)F)c1)C2=O` (some centres not stated) yielded a melting point of 60 to 62 °C.

With `O=C(Nc1cccc(O)c1)NC1N=C(c2ccccc2F)c2ccccc2N(CC(=O)N2CC3CCC(CC3)C2)C1=O` (racemic), the melting point lay within 184 to 185 °C.

`O=c1[nH]c2ccc3c(c2[nH]1)OC(CO)CC3` (configuration not stated) came in with a melting point of 240 °C. In the case of `Cc1ccc(C(=O)Nc2c[nH]nc2C(=O)NCCC#N)cc1` it was 207 to 209 °C; in that of `O=C(O)COCC(=O)NCCCCCCCNC(=O)OCc1ccccc1`, 74 to 74.5 °C; in that of `O=S1(=O)c2ccccc2Nc2ccc(-c3ccccc3)cc21`, 269 to 272 °C.

Regarding `O=C(O)c1cccc(-c2nc(-c3ccc(F)c(F)c3)cs2)c1`, the melting point lay in the range of 255 to 256 °C.

As for `CC(C)(C)n1nc(Nc2ccccc2)c(C#N)c1N`, the melting point fell in the range of 123 to 125 °C. In the case of `COc1cccc(CNC(=O)c2nc3scc(COCc4ccc(C(=O)O)cc4)c3c(=O)[nH]2)c1` it was 229 to 230 °C. `O=C(NC1CC=CCC1)NS(=O)(=O)c1ccc2c(c1)CCN(C(=O)N1CCCC1)CC2` (configuration not stated): the melting point lay within 211 to 212 °C. `CCC(Oc1c(Cl)cccc1Cl)C(=O)OC1CC(O)C=C2C=CC(C)C(CCC3CC(O)CC(=O)O3)C21` (mixture of isomers) showed a melting point of 107 to 109 °C. `O=C(O)c1cc([N+](=O)[O-])ccc1NCc1ccco1`: the melting point fell in the range of 190 to 192 °C. With `CC(=O)Nc1ccc(C(C)(C)C)cc1F` the figure was 164 to 165 °C; with `CC(=O)OC1CCC2(C)C(=CCC3C2C(OC(C)=O)CC2(C)C3CCC2(O)C(=O)CO)C1` (configuration not stated), 231 to 233 °C. In the case of `CC(C)(C)OC(=O)N1CCN(CCOc2cc(-c3ccccc3)on2)CC1` it was 110 to 111 °C. Regarding `Nc1cc2c(Nc3ccc(Br)c(Br)c3)ncnc2cn1`, the melting point is 265 to 268 °C. In the case of `CCCCCc1ncc(C(=O)OCC)c(O)n1`, the melting point lay within 127 to 129 °C. With `COC(C(=O)O)c1nn(-c2ccccc2)c2c1CCC2` (configuration not stated) the figure was 106 to 107 °C; with `CC(C)(C)[Si](C)(C)O[C@@H]1c2sccc2[C@]2(O[Si](C)(C)C(C)(C)C)C[C@H]1OC2=O`, 133 to 137 °C. In the case of `O=C(OI(OC(=O)C(F)(F)F)C(F)(F)C(F)(F)C(F)(F)C(F)(F)C(F)(F)C(F)(F)C(F)(F)F)C(F)(F)F` it was 68 to 70 °C; in that of `COc1ccc(/C=C(\C#N)c2ccc3ccccc3c2)cc1OC1CCCC1`, 147 to 148 °C. With `O=[N+]([O-])c1ccc(-c2ccc(OCCCCCCO)cc2)cc1` the figure was 117 to 119 °C; with `O=c1oc2cc(O)c(O)c([N+](=O)[O-])c2cc1-c1nnn[nH]1`, more than 315 °C; with `C[C@@H](O)[C@H](NC(=O)OC(C)(C)C)C(=O)NOCc1ccccc1`, 87 °C.

In turn, `CN(Cc1ccccc1)Cc1ccc(N)cc1` came in with a melting point of 48 to 50 °C. `CCN(CC)C(=O)c1ccc(C)c(-c2nc(NCCNC(C)C)nc3c2CNC(=O)N3c2c(F)cccc2F)c1` gave a melting point of 89 to 91 °C. In the case of `CN1C(=S)C(NC(=O)CCC2CCCCC2)N=C(c2ccccc2)c2ccccc21` (configuration not stated) it was 219 to 221 °C. In the case of `O=C(N[C@H]1CC[C@H](CCN2CCN(c3nccc4ccoc34)CC2)CC1)C1CCOCC1` it was 211 °C; in that of `COc1ccc2cc([C@H](C)C(=O)OCCC(C)(C)C)ccc2c1`, 92 to 94 °C; in that of `COCCOC(=O)c1ccc(C(C(N)=O)C(C)c2ccccc2N2CCCCC2)cc1` (configuration not stated), 155 to 157 °C. With `CCOC(=O)c1cnn(C)c1C(=O)Nc1ccn2nc(Br)nc2c1` the figure was 177 to 180 °C; with `Cc1nc(C)c(C)c(NCCNCC(O)COc2ccccc2)n1` (configuration not stated), 119 to 121 °C.

On to `CCCCOc1ncc(C(C)=O)cc1-c1nc2c(CC)n(C3CCN(C(=O)OC(C)(C)C)CC3)nc2c(=O)[nH]1`, for which the melting point was 194 to 195 °C. In the case of `CC(=O)NCCc1ccc(CC(=O)O)cc1` it was 117 to 118 °C; in that of `CCNC(=O)n1ccc2ccccc21`, 71 to 73 °C; in that of `N#Cc1cccnc1N1CCN(Cc2nc3ccccc3[nH]2)CC1`, 208 to 210 °C. With `COc1ccc(N2CCOCC2)cc1NC(=S)c1nc2ccccc2[nH]1` the figure was 236 to 237 °C; with `O=c1ccc2ccc(CNCCNc3ccccc3)cc2o1`, 81 to 83 °C. In the case of `CC(C)(C)C(=O)SC1CCN(C(C(=O)C2CC2)c2ccccc2F)CC1` (configuration not stated) it was 88 to 89 °C. Compound `CN(SC(Cl)(Cl)Cl)C(=O)OC(C(Oc1ccc(Cl)cc1)n1cncn1)C(C)(C)C` (configuration not stated) had a melting point of 110 to 112 °C. With `COc1ccc(NC(=NC#N)NC(NC(=O)c2cccc(Cl)c2)C(C)(Cl)Cl)cn1` (configuration not stated) the figure was 189 to 190 °C.

Consider `O=[N+]([O-])C(Br)(Br)CCO`, for which the melting point fell in the range of 22 to 25 °C. In the case of `Cc1cc(C[C@@H](NC(=O)c2ccc(F)c3ccccc23)[C@@H](O)c2ccc(F)cc2)cc(OC(F)(F)C(F)F)c1` (racemic) it was 189 to 190 °C; in that of `CCC(CC(Oc1ccccc1)C(=O)O)Oc1ccc(Cl)cc1` (configuration not stated), 94 °C. With `Cc1cccc(C(=O)Nc2nc(=O)c3ccccc3n2C)c1` the figure was 266 to 269 °C. As for `Cc1cc(N(C)CC(=O)N2CCN(Cc3ccc4c(c3)OCO4)CC2)ccc1Oc1ccc(NC(=O)c2ccc(C(F)(F)F)cc2)cn1`, the melting point lay within 128 to 131 °C. In the case of `CCOc1cc(OC)c(/C=C/C(=O)c2ccc(C(=O)O)cc2)cc1-c1cccs1`, the melting point was in the range of 210 to 212 °C.
